{"source": "patent US7429612B2", "about": "“Indoline compound and medicinal use thereof” (Kyoto Pharmaceutical Industries, Ltd., priority 2002, dated 2008)", "key": {"hepatic ACAT": {"tested_on": "hepatic ACAT", "test": "Hepatic ACAT inhibitory activity (rabbit liver microsomes, [1-14C]-oleoyl CoA)", "format": "biochemical, Japanese white rabbits", "conditions": "Concentration: 10^-6 M; inhibition of cholesteryl oleate production vs control", "experimental": "A high cholesterol feed [a feed added with cholesterol (1%), Clea Japan, Inc.] was fed to male Japanese white rabbits weighing 2-2.5 kg at 100 g per day and the rabbits were bred for 4 weeks. The rabbits were killed by bleeding under anesthesia and liver was removed. The liver was homogenated, and the homogenate was centrifuged at 4° C. and 10,000 rpm for 15 min. The obtained supernatant was further centrifuged at 4° C. and 41,000 rpm for 60 minutes to give microsomal fractions. The microsomal suspension as an enzyme sample, dimethyl sulfoxide (DMSO, […]) or a test compound dissolved in DMSO (test compound solution 3 μl), and reaction substrate [1-^14C]-oleoyl CoA were added to 0.15 M phosphate buffer to the total amount of 300 μl. After incubation at 37° C. for 20 minutes, a chloroform-methanol mixture was added to stop the reaction. Water was added thereto and mixed, and the chloroform layer was separated. The solvent was evaporated to dryness, and the residue was redissolved in n-hexane. The mixture was subjected to thin layer chromatography using a silica gel plate. The spots of cholesteryl oleate on the silica gel plate were scraped, and quantitatively assayed on lo a liquid scintillation counter."}, "[1]": {"tested_on": "THP-1 cell-derived macrophages", "test": "THP-1 cell-derived macrophage foam cell formation suppressing effect (cholesterol ester accumulation inhibitory effect)", "format": "cell-based", "conditions": "Concentration: 10^-6 M, acetyl LDL, 3 days culture; for inhibition at 1 µM: Homo sapiens, THP-1, 72 h, read-out: foam cell formation inhibitory rate (%)", "experimental": "THP-1 (Dainippon Pharmaceutical Co., Ltd.) cells were passage cultured in RPMI-1640 medium supplemented with 10% fetal bovine serum (FBS), and the cells of passages 6-13 after purchase were used. The cells were suspended in FBS-containing RPMI-1640 medium to give a suspension having a concentration of 4×10^5 cells/mL. The cell suspension was inoculated to a 12 well microplate by 1 mL, and treated with phorbol 12-myristate 13-acetate (PMA, 200 nM) as a differentiation inducing agent into macrophage. Then acetyl LDL 400 μg/mL prepared separately from plasma-derived LDL of genetically hyperlipidemia rabbit (KHC rabbit, Japan Laboratory Animals, Inc.) was added. In addition, a test compound dissolved in DMSO and diluted with FBS-containing RPMI-1640 medium or a control solvent was added. After culture in a carbon dioxide incubator for 3 days, the cells were washed with phosphate buffered physiological saline (pH 7.0), and the lipid was extracted with n-hexane/isopropanol (3:2). The cells were dissolved in 1M-NaOH and the protein amount was measured. The free cholesterol and cholesterol ester in a lipid extraction sample was measured by the method of Kunitomo et al. (1983). The cholesterol ester was compared between the control cell and the test compound-treated cells, and the cholesterol ester accumulation inhibitory rate of the test compound was calculated."}}, "note": "Where a name gives a salt, the structure may show the parent alone.", "data": [{"smiles": "Cc1c2c(c(NC(=O)C(C)(C)C)c(C)c1NS(N)(=O)=O)N(CC(C)C)CC2.Cl", "note": "[Example 21, N-[1-(2-methylpropyl)-4,6-dimethyl-5-sulfamoylaminoindolin-7-yl]-2,2-dimethylpropanamide hydrochloride]", "values": [{"measurement": "Hepatic ACAT inhibitory ratio (%)", "setting": "hepatic ACAT", "result": 92.7, "unit": "%"}, {"measurement": "inhibition at 1 µM", "setting": "[1]", "result": 77.1, "unit": "%"}]}, {"smiles": "CCCCCCCCCC(C)(C)C(=O)Nc1c(C)c2c(c(NC(N)=O)c1C)NCC2", "note": "[Example 27, N-(4,6-dimethyl-7-ureidoindolin-5-yl)-2,2-dimethylundecanamide]", "values": [{"measurement": "Hepatic ACAT inhibitory ratio (%)", "setting": "hepatic ACAT", "result": 78.6, "unit": "%"}]}, {"smiles": "CCOCCN1CCc2c(C)c(NS(N)(=O)=O)c(C)c(NC(=O)C(C)(C)C)c21.Cl", "note": "[Example 46, N-[1-(2-ethoxyethyl)-4,6-dimethyl-5-sulfamoylaminoindolin-7-yl]-2,2-dimethylpropanamide hydrochloride]", "values": [{"measurement": "Hepatic ACAT inhibitory ratio (%)", "setting": "hepatic ACAT", "result": 89.2, "unit": "%"}, {"measurement": "inhibition at 1 µM", "setting": "[1]", "result": 59.1, "unit": "%"}]}, {"smiles": "CSCCN1CCc2c(C)c(NS(N)(=O)=O)c(C)c(NC(=O)C(C)(C)C)c21.Cl", "note": "[Example 61, N-[4,6-dimethyl-1-(2-methylthioethyl)-5-sulfamoylaminoindolin-7-yl]-2,2-dimethylpropanamide hydrochloride]", "values": [{"measurement": "Hepatic ACAT inhibitory ratio (%)", "setting": "hepatic ACAT", "result": 95.4, "unit": "%"}]}, {"smiles": "CCCN1c2c(c(C)c(NS(N)(=O)=O)c(C)c2NC(=O)C(C)(C)C)CC1CSCC.Cl", "note": "(centres unmarked) [Example 59, N-(2-ethylthiomethyl-4,6-dimethyl-1-propyl-5-sulfamoylaminoindolin-7-yl)-2,2-dimethylpropanamide hydrochloride]", "values": [{"measurement": "Hepatic ACAT inhibitory ratio (%)", "setting": "hepatic ACAT", "result": 98.1, "unit": "%"}, {"measurement": "inhibition at 1 µM", "setting": "[1]", "result": 92.1, "unit": "%"}]}, {"smiles": "CCCN1c2c(c(C)c(NS(N)(=O)=O)c(C)c2NC(=O)C(C)(C)C)CC1COC.Cl", "note": "(centres unmarked) [Example 50, N-(2-methoxymethyl-4,6-dimethyl-1-propyl-5-sulfamoylaminoindolin-7-yl)-2,2-dimethylpropanamide hydrochloride]", "values": [{"measurement": "Hepatic ACAT inhibitory ratio (%)", "setting": "hepatic ACAT", "result": 86.2, "unit": "%"}, {"measurement": "inhibition at 1 µM", "setting": "[1]", "result": 73.6, "unit": "%"}]}, {"smiles": "CCCCCCCCCC(C)(C)C(=O)Nc1c(C)c2c(c(NS(=O)(=O)C(C)C)c1C)NCC2.Cl", "note": "[Example 23, N-[4,6-dimethyl-7-(2-propanesulfonylamino)indolin-5-yl]-2,2-dimethylundecanamide hydrochloride]", "values": [{"measurement": "Hepatic ACAT inhibitory ratio (%)", "setting": "hepatic ACAT", "result": 96.2, "unit": "%"}, {"measurement": "inhibition at 1 µM", "setting": "[1]", "result": 90.5, "unit": "%"}]}, {"smiles": "CCSCCN1CCc2c(C)c(NS(N)(=O)=O)c(C)c(NC(=O)C(C)(C)C)c21.Cl", "note": "[Example 60, N-[1-(2-ethylthioethyl)-4,6-dimethyl-5-sulfamoylaminoindolin-7-yl]-2,2-dimethylpropanamide hydrochloride]", "values": [{"measurement": "Hepatic ACAT inhibitory ratio (%)", "setting": "hepatic ACAT", "result": 97.2, "unit": "%"}]}, {"smiles": "CCCN1c2c(c(C)c(NS(N)(=O)=O)c(C)c2NC(=O)C(C)(C)C)CC1CSC.Cl", "note": "(centres unmarked) [Example 57, N-(4,6-dimethyl-2-methylthiomethyl-1-propyl-5-sulfamoylaminoindolin-7-yl)-2,2-dimethylpropanamide hydrochloride]", "values": [{"measurement": "Hepatic ACAT inhibitory ratio (%)", "setting": "hepatic ACAT", "result": 94.2, "unit": "%"}, {"measurement": "inhibition at 1 µM", "setting": "[1]", "result": 79.9, "unit": "%"}]}, {"smiles": "CCCCCCCCN1CCc2c(C)c(NS(=O)(=O)NC(=O)OC)c(C)c(NC(=O)C(C)(C)C)c21", "note": "[Example 4, N-[5-(N-methoxycarbonylsulfamoylamino)-4,6-dimethyl-1-octylindolin-7-yl]-2,2-dimethylpropanamide]", "values": [{"measurement": "Hepatic ACAT inhibitory ratio (%)", "setting": "hepatic ACAT", "result": 75.8, "unit": "%"}]}, {"smiles": "CCOCCN1c2c(c(C)c(NS(N)(=O)=O)c(C)c2NC(=O)C(C)(C)C)CC1C", "note": "(centres unmarked) [Example 54, N-[1-(2-ethoxyethyl)-2,4,6-trimethyl-5-sulfamoylaminoindolin-7-yl]-2,2-dimethylpropanamide hydrochloride]", "values": [{"measurement": "inhibition at 1 µM", "setting": "[1]", "result": 64.5, "unit": "%"}]}, {"smiles": "CCCCCCCCN1CCc2c(C)c(NC(N)=O)c(C)c(NC(=O)C(C)(C)C)c21.Cl", "note": "[Example 7, N-(4,6-dimethyl-1-octyl-5-ureidoindolin-7-yl)-2,2-dimethylpropanamide hydrochloride]", "values": [{"measurement": "Hepatic ACAT inhibitory ratio (%)", "setting": "hepatic ACAT", "result": 95.7, "unit": "%"}, {"measurement": "inhibition at 1 µM", "setting": "[1]", "result": 90.9, "unit": "%"}]}, {"smiles": "CCCCCCCCN1CCc2c(C)c([N+](=O)[O-])c(C)c(NC(=O)C(C)(C)C)c21", "note": "[Example 1, N-(4,6-dimethyl-5-nitro-1-octylindolin-7-yl)-2,2-dimethylpropanamide]", "values": [{"measurement": "Hepatic ACAT inhibitory ratio (%)", "setting": "hepatic ACAT", "result": 97.4, "unit": "%"}]}, {"smiles": "CCCCCCCCCC(C)(C)C(=O)Nc1c(C)c2c(c(NS(C)(=O)=O)c1C)N(C)CC2", "note": "[Example 9, N-(7-methanesulfonylamino-1,4,6-trimethylindolin-5-yl)-2,2-dimethylundecanamide]", "values": [{"measurement": "inhibition at 1 µM", "setting": "[1]", "result": 70.9, "unit": "%"}]}, {"smiles": "CCCCCCCCCC(C)(C)C(=O)Nc1c(C)c2c(c(NS(=O)(=O)c3ccc(C)cc3)c1C)NCC2", "note": "[Example 25, N-[4,6-dimethyl-7-(p-toluene)sulfonylaminoindolin-5-yl]-2,2-dimethylundecanamide]", "values": [{"measurement": "Hepatic ACAT inhibitory ratio (%)", "setting": "hepatic ACAT", "result": 94.3, "unit": "%"}, {"measurement": "foam cell formation inhibitory rate (%)", "setting": "[1]", "result": 89.4, "unit": "%"}]}, {"smiles": "CCCCCCCCN1CCc2c(C)c(NS(N)(=O)=O)c(C)c(NC(=O)C(C)(C)C)c21.Cl", "note": "[Example 6, N-(4,6-dimethyl-1-octyl-5-sulfamoylaminoindolin-7-yl)-2,2-dimethylpropanamide hydrochloride]", "values": [{"measurement": "Hepatic ACAT inhibitory ratio (%)", "setting": "hepatic ACAT", "result": 97.4, "unit": "%"}, {"measurement": "inhibition at 1 µM", "setting": "[1]", "result": 91.2, "unit": "%"}]}, {"smiles": "CCCCCCCCCC(C)(C)C(=O)Nc1c(C)c2c(c(NS(C)(=O)=O)c1C)NCC2", "note": "[Example 8, N-(7-methanesulfonylamino-4,6-dimethylindolin-5-yl)-2,2-dimethylundecanamide]", "values": [{"measurement": "Hepatic ACAT inhibitory ratio (%)", "setting": "hepatic ACAT", "result": 96.3, "unit": "%"}, {"measurement": "inhibition at 1 µM", "setting": "[1]", "result": 89.2, "unit": "%"}]}, {"smiles": "CCCCCCCCN1CCc2c(C)c(NS(=O)(=O)NC(C)=O)c(C)c(NC(=O)C(C)(C)C)c21", "note": "[Example 3, N-[5-(N-acetylsulfamoylamino)-4,6-dimethyl-1-octylindolin-7-yl]-2,2-dimethylpropanamide]", "values": [{"measurement": "Hepatic ACAT inhibitory ratio (%)", "setting": "hepatic ACAT", "result": 89.3, "unit": "%"}]}, {"smiles": "CCCCCCCCN1CCc2c(C)c(CNS(C)(=O)=O)c(C)c(NC(=O)C(C)(C)C)c21.Cl", "note": "[Example 10, N-(5-methanesulfonylaminomethyl-4,6-dimethyl-1-octylindolin-7-yl)-2,2-dimethylpropanamide hydrochloride]", "values": [{"measurement": "Hepatic ACAT inhibitory ratio (%)", "setting": "hepatic ACAT", "result": 87.3, "unit": "%"}]}, {"smiles": "Cc1c2c(c(NC(=O)C(C)(C)C)c(C)c1NS(N)(=O)=O)N(C1CCCC1)CC2.Cl", "note": "[Example 43, N-(1-cyclopentyl-4,6-dimethyl-5-sulfamoylaminoindolin-7-yl)-2,2-dimethylpropanamide hydrochloride]", "values": [{"measurement": "Hepatic ACAT inhibitory ratio (%)", "setting": "hepatic ACAT", "result": 90.9, "unit": "%"}, {"measurement": "inhibition at 1 µM", "setting": "[1]", "result": 58.7, "unit": "%"}]}, {"smiles": "CCCCCCCCCC(C)(C)C(=O)Nc1c(C)c2c(c(NS(N)(=O)=O)c1C)NCC2.Cl", "note": "[Example 26, N-(4,6-dimethyl-7-sulfamoylaminoindolin-5-yl)-2,2-dimethylundecanamide hydrochloride]", "values": [{"measurement": "Hepatic ACAT inhibitory ratio (%)", "setting": "hepatic ACAT", "result": 95.4, "unit": "%"}, {"measurement": "inhibition at 1 µM", "setting": "[1]", "result": 75.3, "unit": "%"}]}, {"smiles": "CCCN1c2c(c(C)c(NS(N)(=O)=O)c(C)c2NC(=O)C(C)(C)C)CC1COCC", "note": "(centres unmarked) [Example 51, N-(2-ethoxymethyl-4,6-dimethyl-1-propyl-5-sulfamoylaminoindolin-7-yl)-2,2-dimethylpropanamide hydrochloride]", "values": [{"measurement": "inhibition at 1 µM", "setting": "[1]", "result": 86, "unit": "%"}]}, {"smiles": "CCCCCCC(C)(C)C(=O)Nc1c(C)c2c(c(NS(=O)(=O)C(C)C)c1C)NCC2", "note": "[Example 24, N-[4,6-dimethyl-7-(2-propanesulfonylamino)indolin-5-yl]-2,2-dimethyloctanamide]", "values": [{"measurement": "Hepatic ACAT inhibitory ratio (%)", "setting": "hepatic ACAT", "result": 95.7, "unit": "%"}, {"measurement": "inhibition at 1 µM", "setting": "[1]", "result": 90.5, "unit": "%"}]}, {"smiles": "CCCCN1CCc2c(C)c(NS(N)(=O)=O)c(C)c(NC(=O)C(C)(C)C)c21.Cl", "note": "[Example 19, N-(1-butyl-4,6-dimethyl-5-sulfamoylaminoindolin-7-yl)-2,2-dimethylpropanamide hydrochloride]", "values": [{"measurement": "Hepatic ACAT inhibitory ratio (%)", "setting": "hepatic ACAT", "result": 93.4, "unit": "%"}, {"measurement": "inhibition at 1 µM", "setting": "[1]", "result": 73.3, "unit": "%"}]}, {"smiles": "CCCCCCCCS(=O)(=O)Nc1c(C)c(NC(=O)C(C)(C)C)c(C)c2c1NCC2", "note": "[Example 29, N-[4,6-dimethyl-7-(1-octanesulfonylamino)indolin-5-yl]-2,2-dimethylpropanamide]", "values": [{"measurement": "Hepatic ACAT inhibitory ratio (%)", "setting": "hepatic ACAT", "result": 79.5, "unit": "%"}]}, {"smiles": "Cc1c2c(c(NC(=O)C(C)(C)C)c(C)c1NS(N)(=O)=O)N(CCC(C)C)CC2.Cl", "note": "[Example 20, N-[1-(3-methylbutyl)-4,6-dimethyl-5-sulfamoylaminoindolin-7-yl]-2,2-dimethylpropanamide hydrochloride]", "values": [{"measurement": "Hepatic ACAT inhibitory ratio (%)", "setting": "hepatic ACAT", "result": 95.7, "unit": "%"}, {"measurement": "inhibition at 1 µM", "setting": "[1]", "result": 74.7, "unit": "%"}]}]}
